In DBAASP:
Converted amounts (≈) assume the structure as drawn.

Experiments:
Experiment in all cases: ≥ marks a high value that may be exact or a test limit, other limits are often not marked, values filed in µg/mL are converted to µM
[1] = tested on: Pseudomonas syringae pv. syringae DSM 10604
[2] = tested on: Clavibacter michiganensis subsp. michiganensis DSM 46294
[3] = tested on: Pseudomonas corrugata DSM 7228
[4] = tested on: Pseudomonas syringae pv. tomato DC3000
Cladosporium herbarum = tested on: Cladosporium herbarum
Alternaria alternata = tested on: Alternaria alternata
Botrytis cinerea = tested on: Botrytis cinerea
[5] = tested on: Pectobacterium carotovorum subsp. carotovorum DSM 30168
[6] = tested on: Xanthomonas vesicatoria DSM 50861
[7] = tested on: Pseudomonas aeruginosa ATCC 27853
[8] = tested on: Corynebacterium glutamicum ATCC 13032
[9] = tested on: Staphylococcus aureus ATCC 9144
Escherichia coli HB101 = tested on: Escherichia coli HB101
[10] = tested on: Escherichia coli ATCC 25922
[11] = tested on: Salmonella enterica subsp. enterica serovar Typhimurium C77-31
Escherichia coli ER2566 = tested on: Escherichia coli ER2566
Escherichia coli 44102 = tested on: Escherichia coli 44102
[12] = tested on: Salmonella enterica subsp. enterica serovar Typhimurium ATCC 14028
[13] = tested on: Pseudomonas aeruginosa ATCC 10419
[14] = tested on: Staphylococcus epidermidis ATCC 12228
Escherichia coli 078 = tested on: Escherichia coli 078
Escherichia coli UB1005 = tested on: Escherichia coli UB1005
[15] = tested on: Pseudomonas aeruginosa ATCC 21625
Escherichia coli K88 = tested on: Escherichia coli K88
[16] = tested on: Enterococcus faecalis ATCC 29212
[17] = tested on: Staphylococcus aureus ATCC 25923
[18] = tested on: Bacillus subtilis ATCC 11060
[19] = tested on: Pseudomonas aeruginosa ATCC 21630
[20] = tested on: Salmonella enterica subsp. enterica serovar Pullorum C79-13

`CC(C)C[C@H](NC(=O)[C@H](CCCCN)NC(=O)[C@H](Cc1cnc[nH]1)NC(=O)[C@H](CCCCN)NC(=O)[C@H](CC(C)C)NC(=O)[C@H](C)NC(=O)[C@H](CCCCN)NC(=O)[C@H](C)NC(=O)[C@H](CC(C)C)NC(=O)[C@H](C)NC(=O)[C@H](CCCN=C(N)N)NC(=O)[C@@H](N)CC(C)C)C(N)=O` [LRALAKALKHKL] was tested, and the MIC [1] was 29.4 µM (≈ 40 µg/mL), the MIC [2] was 29.4 µM (≈ 40 µg/mL) and the MIC [3] was 7.34 µM (≈ 9.99 µg/mL). For the same compound, the MIC [4] was 3.67 µM (≈ 5 µg/mL), the MIC (Cladosporium herbarum) was 14.7 µM (≈ 20 µg/mL) and the MIC (Alternaria alternata) was ≥ 73.4 µM. For the same compound, the MIC (Botrytis cinerea) was ≥ 73.4 µM, the MIC [5] was 29.4 µM (≈ 40 µg/mL) and the MIC [6] was 29.4 µM (≈ 40 µg/mL).
In the case of `CC[C@H](C)[C@H](NC(=O)[C@@H]1CCCN1C(=O)[C@H](CCCCN)NC(=O)[C@@H]1CCCN1C(=O)[C@H](CCCN=C(N)N)NC(=O)CNC(=O)[C@@H]1CCCN1C(=O)[C@H](Cc1ccccc1)NC(=O)[C@@H]1CCCN1C(=O)[C@H](CCCN=C(N)N)NC(=O)[C@@H]1CCCN1C(=O)[C@H](CCCN=C(N)N)NC(=O)CNC(=O)[C@@H]1CCCN1C(=O)[C@H](CO)NC(=O)[C@@H]1CCCN1C(=O)[C@@H](N)Cc1c[nH]c2ccccc12)C(=O)N[C@@H](Cc1ccccc1)C(=O)N[C@@H](CCCN=C(N)N)C(=O)N1CCC[C@H]1C(=O)N[C@@H](CCCN=C(N)N)C(=O)O` [WPSPGRPRPFPGRPKPIFRPR], the MIC [7] is reported as 100 µM (≈ 250 µg/mL), the MIC [8] is reported as 3.1 µM (≈ 7.75 µg/mL) and the MIC [9] is reported as ≥ 100 µM. The MIC (Escherichia coli HB101) was 12.5 µM (≈ 31.2 µg/mL) and the MIC [10] was 35.4 µM (≈ 88.4 µg/mL).
`CC[C@H](C)[C@H](NC(=O)[C@H](CCCCN)NC(=O)[C@H](CCCCN)NC(=O)[C@H](CC(C)C)NC(=O)[C@H](CCCN=C(N)N)NC(=O)[C@H](Cc1c[nH]c2ccccc12)NC(=O)[C@H](CCCN=C(N)N)NC(=O)[C@@H](NC(=O)[C@H](CCCCN)NC(=O)[C@H](Cc1c[nH]c2ccccc12)NC(=O)[C@H](CCCN=C(N)N)NC(=O)[C@H](CC(C)C)NC(=O)[C@H](CCCN=C(N)N)NC(=O)[C@H](CCCN=C(N)N)NC(=O)[C@H](Cc1ccccc1)NC(=O)[C@@H](N)CCCN=C(N)N)[C@@H](C)O)C(N)=O` [RFRRLRWKTRWRLKKI] was tested, and the MIC [11] was 8 µM, the MIC (Escherichia coli ER2566) was 8 µM (≈ 18.4 µg/mL) and the MIC (Escherichia coli 44102) was 8 µM (≈ 18.4 µg/mL). For the same compound, the MIC [12] was 8 µM (≈ 18.4 µg/mL), the MIC [13] was 16 µM (≈ 36.8 µg/mL) and the MIC [7] was > 128 µM. The MIC [14] was 8 µM (≈ 18.4 µg/mL), the MIC (Escherichia coli 078) was 4 µM (≈ 9.2 µg/mL) and the MIC (Escherichia coli UB1005) was 4 µM (≈ 9.2 µg/mL). For the same compound, the MIC [15] was ≥ 32 µM, the MIC (Escherichia coli K88) was 4 µM (≈ 9.2 µg/mL) and the MIC [16] was 4 µM (≈ 9.2 µg/mL). For the same compound, the MIC [17] was 32 µM (≈ 73.6 µg/mL), the MIC [18] was 8 µM (≈ 18.4 µg/mL) and the MIC [19] was 16 µM (≈ 36.8 µg/mL). For the same compound, the MIC [20] was ≥ 128 µM.
